According to patent US9029337B2, “Modulation of factor 7 expression” (Isis Pharmaceuticals, Inc., priority 2007, dated 2015):
Strand notation (5' to 3'): a small letter for the sugar, then the base; units joined by * are phosphorothioate-linked, units joined directly phosphodiester-linked; [ ] holds rarer units or linkages, { } end groups; capitals alone tell only the bases. e = 2'-O-(2-methoxyethyl) (MOE); [5mC] = 5-methylcytosine; d = 2'-deoxy (DNA)

Assays:
Type in all cases: cell-based
human Factor 7 mRNA [1] = assay: Antisense inhibition of human Factor 7 mRNA in HepB3 cells, 50 nM antisense oligonucleotide, lipofectin; conditions: for % Inhibition: Table 13 (microwalk), 50 nM, lipofectin, approximately 24 hours
Outline: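 Readout is percent reduction of Factor 7 message compared with untreated cells, after correction for total RNA content quantified by RIBOGREEN®. Cultures were seeded at 4,000 cells per well and treated for about 24 hours before RNA extraction.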

human Factor 7 mRNA [2] = assay: Dose-dependent antisense inhibition of human Factor 7 in HepB3 cells, lipofectin; conditions: HepB3 cells, approx. 16 hours (Table 14)
Outline: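 HepB3 cells (4,000/well) lipofectin-transfected with antisense oligonucleotide at 3.125 or 6.25 up to 100 nM for ~16 h. Factor 7 mRNA measured by real-time RT-PCR with primer probe set RTS 2927, adjusted to RIBOGREEN total RNA; expressed as percent inhibition versus untreated control cells.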

human Factor 7 mRNA [3] = assay: Dose-dependent antisense inhibition of human Factor 7 in HepB3 cells, electroporation
Outline: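 HepB3 cells, 20,000/well, electroporated with gapmers at 3.125–100 μM; about 16 h treatment. Factor 7 mRNA by qRT-PCR with primer probe set RTS 2927, normalized to RIBOGREEN total RNA; percent inhibition versus untreated cells.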

[4] = 3.125 μM, approx. 16 hours (Table 15, Example 7)
[5] = 6.25 μM, approx. 16 hours (Table 15, Example 7)
[6] = 12.5 μM, approx. 16 hours (Table 15, Example 7)
[7] = 25 μM, approx. 16 hours (Table 15, Example 7)
[8] = 50 μM, approx. 16 hours (Table 15, Example 7)
[9] = 100 μM, approx. 16 hours (Table 15, Example 7)

Substance | % Inhibition (human Factor 7 mRNA [1]) | percent inhibition of Factor 7 mRNA, relative to untreated control cells (human Factor 7 mRNA [2]; 3.125 nM) | percent inhibition of Factor 7 mRNA, relative to untreated control cells (human Factor 7 mRNA [2]; 12.5 nM) | percent inhibition of Factor 7 mRNA, relative to untreated control cells (human Factor 7 mRNA [2]; 25 nM) | percent inhibition of Factor 7 mRNA, relative to untreated control cells (human Factor 7 mRNA [2]; 50 nM) | percent inhibition of Factor 7 mRNA, relative to untreated control cells (human Factor 7 mRNA [2]; 100 nM) | percent inhibition of Factor 7 mRNA, relative to untreated control cells (human Factor 7 mRNA [2]) | percent inhibition of Factor 7 mRNA, relative to untreated control cells (human Factor 7 mRNA [3]; [4]) | percent inhibition of Factor 7 mRNA, relative to untreated control cells (human Factor 7 mRNA [3]; [5]) | percent inhibition of Factor 7 mRNA, relative to untreated control cells (human Factor 7 mRNA [3]; [6]) | percent inhibition of Factor 7 mRNA, relative to untreated control cells (human Factor 7 mRNA [3]; [7]) | percent inhibition of Factor 7 mRNA, relative to untreated control cells (human Factor 7 mRNA [3]; [8]) | percent inhibition of Factor 7 mRNA, relative to untreated control cells (human Factor 7 mRNA [3]; [9]) | % Inhibition (human Factor 7 mRNA levels) (human Factor 7 mRNA [1]; oligonucleotides targeted to nucleobases 13760 to 13789 of SEQ ID NO: 1 (Table 10)) | percent inhibition of Factor 7 mRNA, relative to untreated control cells (human Factor 7 mRNA [3]; 3.125 μM, approx. 16 hours (Table 16, Example 8 confirmation)) | percent inhibition of Factor 7 mRNA, relative to untreated control cells (human Factor 7 mRNA [3]; 6.25 μM, approx. 16 hours (Table 16, Example 8 confirmation)) | percent inhibition of Factor 7 mRNA, relative to untreated control cells (human Factor 7 mRNA [3]; 12.5 μM, approx. 16 hours (Table 16, Example 8 confirmation)) | percent inhibition of Factor 7 mRNA, relative to untreated control cells (human Factor 7 mRNA [3]; 25 μM, approx. 16 hours (Table 16, Example 8 confirmation)) | percent inhibition of Factor 7 mRNA, relative to untreated control cells (human Factor 7 mRNA [3]; 50 μM, approx. 16 hours (Table 16, Example 8 confirmation)) | percent inhibition of Factor 7 mRNA, relative to untreated control cells (human Factor 7 mRNA [3]; 100 μM, approx. 16 hours (Table 16, Example 8 confirmation))
422228 (antisense eT*eG*d[5mC]*dA*dT*dG*dG*dT*dG*dA*dT*dG*d[5mC]*dT*dT*e[5mC]*eT*eG*eA*eA) [compound 422228] | 73% | 17% | 43% | 60% | 78% | 90% | 25% | 18% | 33% | 40% | 47% | 71% | 83% | – | – | – | – | – | – | –
422252 (antisense e[5mC]*eG*d[5mC]*d[5mC]*dG*dG*d[5mC]*dT*d[5mC]*dT*dG*d[5mC]*dT*d[5mC]*dA*eT*e[5mC]*e[5mC]*e[5mC]*e[5mC]) [compound 422252] | – | 18% | 45% | 61% | 77% | 87% | 17% | 23% | 12% | 26% | 38% | 58% | 80% | 70% | – | – | – | – | – | –
422086 (antisense eT*eG*e[5mC]*eA*eT*dG*dG*dT*dG*dA*dT*dG*d[5mC]*dT*dT*e[5mC]*eT*eG*eA*eA) [compound 422086] | 81% | 8% | 46% | 65% | 83% | 90% | 26% | 20% | 34% | 44% | 63% | 75% | 84% | – | 25% | 48% | 74% | 82% | 86% | 90%
